Test results from patent US9743665B2, “Fungicidal 3-{phenyl[heterocyclylmethoxy)imino]methyl}-oxadiazolone derivatives” (BAYER CROPSCIENCE AKTIENGESELLSCHAFT, priority 2013, dated 2017).
Read-outs that look alike come from different tables or passages of the source. Marks after values point to notes of the source that are not given here.

Key:
[1] = pH 2.7
Experimental: (§1) Measurement of IogP values was performed according EEC directive 79/831 Annex V.A8 by HPLC (High Performance Liquid Chromatography) on reversed phase columns with the following methods:
(§2) Measurement of LC-MS was done at pH 2.7 with 0.1% formic acid in water and with acetonitrile (contains 0.1% formic acid) as eluent with a linear gradient from 10% acetonitrile to 95% acetonitrile.
(§3) Calibration was done with not branched alkan2-ones (with 3 to 16 carbon atoms) with known logP-values (measurement of logP values using retention times with linear interpolation between successive alkanones). lambda-maX-values were determined using UV-spectra from 200 nm to 400 nm and the peak values of the chromatographic signals.

Phytophthora infestans = assay type: in vivo; details: tomato plants, preventive spray, 500 ppm of active ingredient, evaluated 5 days after inoculation
[2] = for chromatographic logP: pH 2.7; for LogP: Table 1, formula (I), method [a]: HPLC/LC-MS at pH 2.7, 0.1% formic acid in water / acetonitrile gradient
Experimental: as §1, §2, §3

Septoria tritici = assay: Example G: in vivo preventive test on Septoria tritici (leaf spot on wheat); details: wheat plants, preventive spray, 500 ppm of active ingredient, evaluated 24 days after inoculation
Experimental: Example G: In Vivo Preventive Test on Septoria tritici (Leaf Spot on Wheat)
The tested active ingredients are prepared by homogenization in a mixture of acetone/Dimethyl sulfoxide/Tween®, and then diluted with water to obtain the desired active material concentration.
The young plants of wheat are treated by spraying the active ingredient prepared as described above. Control plants are treated only with an aqueous solution of acetone/Dimethyl sulfoxide/Tween®.
After 24 hours, the plants are contaminated by spraying the leaves with an aqueous suspension of Septoria tritici spores. The contaminated wheat plants are incubated for 72 hours at 18° C. and at 100% relative humidity and then for 21 days at 20° C. and at 90% relative humidity.
The test is evaluated 24 days after the inoculation. 0% means an efficacy which corresponds to that of the control plants while an efficacy of 100% means that no disease is observed.

Plasmopara viticola = assay: Example J: Plasmopara test (grapevines)/preventive; assay type: in vivo; details: grapevine plants, preventive spray, 10 ppm of active ingredient, evaluated 6 days after inoculation
Experimental: Example J: Plasmopara Test (Grapevines)/Preventive
To produce a suitable preparation of active compound, 1 part by weight of active compound is mixed with the stated amounts of solvent and emulsifier, and the concentrate is diluted with water to the desired concentration.
To test for preventive activity, young plants are sprayed with the preparation of active compound at the stated rate of application. After the spray coating has dried on, the plants are inoculated with an aqueous spore suspension of Plasmopara viticola and then remain for 1 day in an incubation cabinet at approximately 20° C. and a relative atmospheric humidity of 100%. The plant is subsequently placed for 4 days in a greenhouse at approximately 21° C. and a relative atmospheric humidity of approximately 90%. The plants are then misted and placed for 1 day in an incubation cabinet.
The test is evaluated 6 days after the inoculation. 0% means an efficacy which corresponds to that of the untreated control, while an efficacy of 100% means that no disease is observed.

Row | Structure (SMILES) | LogP [1] | % efficacy (Phytophthora infestans) [%] | also measured
1 | C#CCCOC(=O)Nc1csc(CO/N=C(/c2ccccc2)c2noc(=O)n2C)n1 [Example 1] | 2.97^[a] | 98 | 
2 | Cn1oc(=O)nc1/C(=N\OCn1ccc([N+](=O)[O-])n1)c1ccccc1 [Example 2, 2-methyl-3-[(Z)-{[(3-nitro-1H-pyrazol-1-yl)methoxy]imino}(phenyl)methyl]-1,2,4-oxadiazol-5(2H)-one] |  |  | chromatographic logP [2]: 2.1
3 | Cn1c(C(=NOCc2nc(Br)cs2)c2ccccc2)noc1=O [Example 3, 3-[{[(4-bromo-1,3-thiazol-2-yl)methoxy]imino}(phenyl)methyl]-4-methyl-1,2,4-oxadiazol-5(4H)-one] |  |  | chromatographic logP [2]: 3.25
4 | Cn1oc(=O)nc1/C(=N\OCc1nc(C#CC2CC2)cs1)c1ccccc1 [Example 4, 3-[(Z)-({[4-(cyclopropylethynyl)-1,3-thiazol-2-yl]methoxy}imino)(phenyl)methyl]-2-methyl-1,2,4-oxadiazol-5(2H)-one] |  | 100 | chromatographic logP [2]: 3.04
5 | Cn1c(/C(=N\OCc2nc(C(=O)NC(C)(C)C)cs2)c2ccccc2)noc1=O [Example 5] | 3.22^[a] | 100 | % efficacy (Septoria tritici): 86%
6 | Cn1oc(=O)nc1/C(=N\OCn1ccc(N)n1)c1ccccc1 [Example 8, 3-[(Z)-{[(3-amino-1H-pyrazol-1-yl)methoxy]imino}(phenyl)methyl]-2-methyl-1,2,4-oxadiazol-5(2H)-one] |  |  | chromatographic logP [2]: 1.29
7 | Cn1c(/C(=N\OCc2nc(C(=O)NC3CCCCC3)cs2)c2ccccc2)noc1=O [Example 9] | 3.43^[a] | 79 | 
8 | Cn1c(/C(=N\OCc2nc(NC(=O)C(C)(C)C)cs2)c2ccccc2)noc1=O [Example 11] | 3.23^[a] | 100 | 
9 | Cn1c(/C(=N\OCc2nc(C#CCCc3ccccc3)cs2)c2ccccc2)noc1=O [Example 12] | 4.30^[a] | 100 | 
10 | Cn1oc(=O)nc1/C(=N\OCc1nc(Br)cs1)c1ccccc1 [Example 14, 3-[(Z)-{[(4-bromo-1,3-thiazol-2-yl)methoxy]imino}(phenyl)methyl]-2-methyl-1,2,4-oxadiazol-5(2H)-one] |  | 74 | chromatographic logP [2]: 2.6
11 | Cc1ccc(C(=O)Nc2csc(CO/N=C(/c3ccccc3)c3noc(=O)n3C)n2)cc1 [Example 17] | 3.34^[a] | 100 | Eff. % (Plasmopara viticola): 84%
12 | Cn1c(/C(=N\OCc2nc(NC(=O)Cc3ccccc3)cs2)c2ccccc2)noc1=O [Example 19] |  | 98 | LogP [2]: 3.21^[a]
13 | CCCCC#Cc1csc(CO/N=C(/c2ccccc2)c2noc(=O)n2C)n1 [Example 21] | 4.26^[a] | 100 | 
14 | CCCC#Cc1csc(CO/N=C(/c2ccccc2)c2noc(=O)n2C)n1 [Example 22] | 3.87^[a] | 100 | Eff. % (Plasmopara viticola): 85%
15 | CC(C)C#Cc1csc(CO/N=C(/c2ccccc2)c2noc(=O)n2C)n1 [Example 23] |  | 99 | LogP [2]: 3.86^[a]
16 | CCCC/C=C/c1csc(CO/N=C(/c2ccccc2)c2noc(=O)n2C)n1 [Example 24] | 4.77^[a] | 98 | 
17 | CCCCC#Cc1csc(CO/N=C(/c2ccccc2)c2noc(=O)[nH]2)n1 [Example 25] | 3.39^[a] |  | 
18 | CCCC#Cc1csc(CO/N=C(/c2ccccc2)c2noc(=O)[nH]2)n1 [Example 26] | 3.47^[a] |  | 
19 | Cn1c(/C(=N\OCc2nc(NC(=O)C3CCc4ccccc4O3)cs2)c2ccccc2)noc1=O (stereo not shown) [Example 27] | 3.77^[a] | 92 | Eff. % (Plasmopara viticola): 99%
20 | Cn1c(/C(=N\OCc2nc(NC(=O)COc3ccccc3)cs2)c2ccccc2)noc1=O [Example 28] | 3.30^[a] | 73 | 
21 | Cn1c(/C(=N\OCc2nc(/C=C/C3CCCCC3)cs2)c2ccccc2)noc1=O [Example 29] | 5.39^[a] | 83 | % efficacy (Septoria tritici): 79%
22 | CCCCC/C=C/c1csc(CO/N=C(/c2ccccc2)c2noc(=O)n2C)n1 [Example 30] | 5.23^[a] | 97 | 
23 | Cn1c(/C(=N\OCc2nc(C#CC3CCCCC3)cs2)c2ccccc2)noc1=O [Example 31] | 4.80^[a] | 94 | 
24 | O=c1[nH]c(/C(=N\OCc2nc(C#CC3CCCCC3)cs2)c2ccccc2)no1 [Example 32] | 4.33^[a] |  | 
25 | Cn1c(/C(=N\OCc2nc(/C=C/C3CC3)cs2)c2ccccc2)noc1=O [Example 34] | 3.90^[a] | 100 | % efficacy (Septoria tritici): 86%
26 | Cn1c(/C(=N\OCc2nc(NC(=O)COCc3ccccc3)cs2)c2ccccc2)noc1=O [Example 35] | 3.45^[a] | 93 | 

Row | Structure (SMILES) | LogP [1] | % efficacy (Phytophthora infestans) [%] | also measured
27 | CCCC(C)C(=O)Nc1csc(CO/N=C(/c2ccccc2)c2noc(=O)n2C)n1 (stereo not shown) [Example 36] | 3.45^[a] | 99 | 
28 | CCCCCC#Cc1csc(CO/N=C(/c2ccccc2)c2noc(=O)n2C)n1 [Example 37] | 4.72^[a] | 100 | 
29 | CC(OCC(=O)Nc1csc(CO/N=C(/c2ccccc2)c2noc(=O)n2C)n1)c1ccccc1 (stereo not shown) [Example 38] | 4.32^[a] | 100 | Eff. % (Plasmopara viticola): 96%
30 | Cn1c(/C(=N\OCc2nc(C#CCc3ccccc3)cs2)c2ccccc2)noc1=O [Example 39] | 4.07^[a] | 88 | 
31 | CC(Oc1ccccc1)C(=O)Nc1csc(CO/N=C(/c2ccccc2)c2noc(=O)n2C)n1 (stereo not shown) [Example 40] | 3.55^[a] | 100 | Eff. % (Plasmopara viticola): 99%
32 | Cn1c(/C(=N\OCc2nc(/C=C/Cc3ccccc3)cs2)c2ccccc2)noc1=O [Example 41] | 4.39^[a] |  | 
33 | C=CCOC(=O)Nc1csc(CO/N=C(/c2ccccc2)c2noc(=O)n2C)n1 [Example 42] | 3.02^[a] |  | 
34 | Cn1oc(=O)nc1/C(=N\OCc1nc(C(=O)NC(C)(C)C)cs1)c1ccccc1 [Example 43] | 2.61^[a] |  | 
35 | N#C/C(=N\OCn1ccc([N+](=O)[O-])n1)c1ccccc1 [Example IV-1, (2Z)-{[(3-nitro-1H-pyrazol-1-yl)methoxy]imino}(phenyl)acetonitrile] |  |  | chromatographic logP [2]: 2.9
36 | COC(=O)c1csc(CON=C(C#N)c2ccccc2)n1 [Example IV-2] | 2.80^[a] |  | 
37 | N#CC(=NOCc1nc(Br)cs1)c1ccccc1 [Example IV-3, {[(4-bromo-1,3-thiazol-2-yl)methoxy]imino}(phenyl)acetonitrile] |  |  | chromatographic logP [2]: 3.61
38 | N#CC(=NOCn1ccc(N)n1)c1ccccc1 [Example IV-4] | 1.86^[a] |  | 
39 | N#CC(=NOCc1nc(C#CCCCc2ccccc2)cs1)c1ccccc1 [Example IV-5] | 5.19^[a] |  | 
40 | CCCC#Cc1csc(CON=C(C#N)c2ccccc2)n1 [Example IV-6] | 4.41^[a] |  | 
41 | CCCCC#Cc1csc(CON=C(C#N)c2ccccc2)n1 [Example IV-7] | 4.83^[a] |  | 
42 | N#CC(=NOCc1nc(C#CC2CC2)cs1)c1ccccc1 [Example IV-8] | 4.04^[a] |  | 
43 | N#CC(=NOCc1nc(C#CC2CCCCC2)cs1)c1ccccc1 [Example IV-9] | 5.42^[a] |  | 
44 | CCCCCC#Cc1csc(CON=C(C#N)c2ccccc2)n1 [Example IV-10] | 5.27^[a] |  | 
45 | NC(=NO)C(=NOCn1ccc(N)n1)c1ccccc1 [Example V-1] | 0.65^[a] |  | 
46 | NC(=NO)C(=NOCc1nc(Br)cs1)c1ccccc1 [Example V-2] | 1.86^[a] |  | 
47 | CCCC#Cc1csc(CON=C(C(N)=NO)c2ccccc2)n1 [Example V-3] | 2.59^[a] |  | 
48 | CCCCC#Cc1csc(CON=C(C(N)=NO)c2ccccc2)n1 [Example V-4] | 2.98^[a] |  | 
49 | NC(=NO)C(=NOCc1nc(C#CC2CCCCC2)cs1)c1ccccc1 [Example V-5] | 3.42^[a] |  | 
50 | CCCCCC#Cc1csc(CON=C(C(N)=NO)c2ccccc2)n1 [Example V-6] | 3.37^[a] |  | 
51 | CN(O)C(=N)/C(=N\OCn1ccc([N+](=O)[O-])n1)c1ccccc1 [Example VI-1, (2Z)—N-hydroxy-N-methyl-2-{[(3-nitro-1H-pyrazol-1-yl)methoxy]imino}-2-phenylethanimidamide] |  |  | chromatographic logP [2]: 1.15
52 | CN(O)C(=N)/C(=N\OCc1nc(Br)cs1)c1ccccc1 [Example VI-2, (2Z)-2-{[(4-bromo-1,3-thiazol-2yl)methoxy]imino}-N-hydroxy-N-methyl-2-phenylethanimidamide] |  |  | chromatographic logP [2]: 1.49
